Data published in patent US20250100968A1, “BICYCLIC-HETEROCYCLE DERIVATIVES AND RELATED USES” (CENTESSA PHARMACEUTICALS (UK) LIMITED, priority 2022, published 2025).

Target: T1, human orexin type 2 receptor (hOX2R) (Homo sapiens, UniProt O43614)
T1 sequence (O43614 1-444): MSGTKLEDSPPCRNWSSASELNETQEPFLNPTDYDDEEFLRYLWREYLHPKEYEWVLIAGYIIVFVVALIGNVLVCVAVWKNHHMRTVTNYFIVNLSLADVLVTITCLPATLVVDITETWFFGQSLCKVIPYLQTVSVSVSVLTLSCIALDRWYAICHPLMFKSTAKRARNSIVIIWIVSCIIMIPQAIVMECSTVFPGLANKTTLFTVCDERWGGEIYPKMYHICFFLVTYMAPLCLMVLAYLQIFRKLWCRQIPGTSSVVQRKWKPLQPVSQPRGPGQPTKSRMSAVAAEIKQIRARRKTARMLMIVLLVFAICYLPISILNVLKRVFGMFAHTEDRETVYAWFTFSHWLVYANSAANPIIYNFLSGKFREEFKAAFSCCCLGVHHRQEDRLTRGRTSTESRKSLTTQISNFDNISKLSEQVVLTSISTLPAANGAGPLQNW
Test: cell-based
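Note: agonist activity in CHO cells stably expressing hOX2R, intracellular Ca2+ via Calcium 5 dye fluorescence area over 2 min, buffer-only as 0% and 10 nM orexin A as 100%.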

SMILES	EC50
C[C@@](O)(CF)C(=O)N1CC2(CC2)[C@H](NS(=O)(=O)CF)[C@@H]1Cc1cccc(-c2ccccc2)c1F [compound 35, 1-fluoro-N-((6S,7S)-5-((S)-3-fluoro-2-hydroxy-2-methylpropanoyl)-6-((2-fluoro-[1,1′-biphenyl]-3-yl)methyl)-5-azaspiro[2.4]heptan-7-yl)methanesulfonamide]	0.0631 to 1 nM
O=C([C@H]1CCO1)N1CC2(CC2)[C@H](NS(=O)(=O)C2(F)CC2)[C@@H]1Cc1cccc(-c2cc(F)cc(F)c2)c1F [compound 36, 1-fluoro-N-((6S,7S)-5-((R)-oxetane-2-carbonyl)-6-((2,3′,5′-trifluoro-[1,1′-biphenyl]-3-yl)methyl)-5-azaspiro[2.4]heptan-7-yl)cyclopropane-1-sulfonamide]	0.0631 to 1 nM
CC(C)(F)CNC(=O)N1CC2(CC2)[C@H](NS(=O)(=O)CF)[C@@H]1Cc1cccc(-c2cc(F)cc(F)c2)c1F [compound 37, (6S,7S)-N-(2-fluoro-2-methylpropyl)-7-((fluoromethyl)sulfonamido)-6-((2,3′,5′-trifluoro-[1,1′-biphenyl]-3-yl)methyl)-5-azaspiro[2.4]heptane-5-carboxamide]	1 to 10 nM
CC(F)(F)CNC(=O)N1CC2(CC2)[C@H](NS(=O)(=O)CF)[C@@H]1Cc1cccc(-c2cc(F)cc(F)c2)c1F [compound 38, (6S,7S)-N-(2,2-difluoropropyl)-7-((fluoromethyl)sulfonamido)-6-((2,3′,5′-trifluoro-[1,1′-biphenyl]-3-yl)methyl)-5-azaspiro[2.4]heptane-5-carboxamide]	1 to 10 nM
CC(F)(F)CNC(=O)N1CC2(CC2)[C@H](NS(=O)(=O)C(F)F)[C@@H]1Cc1cccc(-c2cc(F)cc(F)c2)c1F [compound 39, (6S,7S)-7-((difluoromethyl)sulfonamido)-N-(2,2-difluoropropyl)-6-((2,3′,5′-trifluoro-[1,1′-biphenyl]-3-yl)methyl)-5-azaspiro[2.4]heptane-5-carboxamide]	1 to 10 nM
C[C@H](C#N)C(=O)N1CC2(CC2)[C@H](NS(=O)(=O)C(F)F)[C@@H]1Cc1cccc(-c2ccccc2)c1F [compound 40, N-((6S,7S)-5-((R)-2-cyanopropanoyl)-6-((2-fluoro-[1,1′-biphenyl]-3-yl)methyl)-5-azaspiro[2.4]heptan-7-yl)-1,1-difluoromethanesulfonamide]	1 to 10 nM
C[C@@H](C#N)C(=O)N1CC2(CC2)[C@H](NS(=O)(=O)C(F)F)[C@@H]1Cc1cccc(-c2ccccc2)c1F [compound 41, N-((6S,7S)-5-((S)-2-cyanopropanoyl)-6-((2-fluoro-[1,1′-biphenyl]-3-yl)methyl)-5-azaspiro[2.4]heptan-7-yl)-1,1-difluoromethanesulfonamide]	1 to 10 nM
O=C([C@H]1CCCO1)N1CC2(CC2)[C@H](NS(=O)(=O)CF)[C@@H]1Cc1cccc(-c2cc(F)cc(F)c2)c1F [compound 42, 1-fluoro-N-((6S,7S)-5-((R)-tetrahydrofuran-2-carbonyl)-6-((2,3′,5′-trifluoro-[1,1′-biphenyl]-3-yl)methyl)-5-azaspiro[2.4]heptan-7-yl)methanesulfonamide]	1 to 10 nM
N#C[C@@]1(C(=O)N2CC3(CC3)[C@H](NS(=O)(=O)CF)[C@@H]2Cc2cccc(-c3cccc(F)c3)c2F)CCO1 [compound 45, N-((6S,7S)-5-((R)-2-cyanooxetane-2-carbonyl)-6-((2,3′-difluoro-[1,1′-biphenyl]-3-yl)methyl)-5-azaspiro[2.4]heptan-7-yl)-1-fluoromethanesulfonamide]	1 to 10 nM
N#C[C@]1(C(=O)N2CC3(CC3)[C@H](NS(=O)(=O)CF)[C@@H]2Cc2cccc(-c3cccc(F)c3)c2F)CCO1 [compound 46, N-((6S,7S)-5-((S)-2-cyanooxetane-2-carbonyl)-6-((2,3′-difluoro-[1,1′-biphenyl]-3-yl)methyl)-5-azaspiro[2.4]heptan-7-yl)-1-fluoromethanesulfonamide]	1 to 10 nM
N#C[C@]1(C(=O)N2CC3(CC3)[C@H](NS(=O)(=O)CF)[C@@H]2Cc2cccc(-c3cc(F)cc(F)c3)c2F)CCO1 [compound 47, N-((6S,7S)-5-((S)-2-cyanooxetane-2-carbonyl)-6-((2,3′,5′-trifluoro-[1,1′-biphenyl]-3-yl)methyl)-5-azaspiro[2.4]heptan-7-yl)-1-fluoromethanesulfonamide]	1 to 10 nM
N#C[C@]1(C(=O)N2CC3(CC3)[C@H](NS(=O)(=O)C(F)F)[C@@H]2Cc2cccc(-c3cc(F)cc(F)c3)c2F)CCO1 [compound 48, N-((6S,7S)-5-((S)-2-cyanooxetane-2-carbonyl)-6-((2,3′,5′-trifluoro-[1,1′-biphenyl]-3-yl)methyl)-5-azaspiro[2.4]heptan-7-yl)-1,1-difluoromethanesulfonamide]	0.0631 to 1 nM
C[C@H](C#N)C(=O)N1CC2(CC2)[C@H](NS(=O)(=O)C(F)F)[C@@H]1Cc1cccc(-c2cc(F)cc(F)c2)c1F [compound 49, N-((6S,7S)-5-((R)-2-cyanopropanoyl)-6-((2,3′,5′-trifluoro-[1,1′-biphenyl]-3-yl)methyl)-5-azaspiro[2.4]heptan-7-yl)-1,1-difluoromethanesulfonamide]	1 to 10 nM
O=C([C@H]1CCCO1)N1CC2(CC2)[C@H](NS(=O)(=O)C(F)F)[C@@H]1Cc1cccc(-c2cc(F)cc(F)c2)c1F [compound 50, 1,1-difluoro-N-((6S,7S)-5-((R)-tetrahydrofuran-2-carbonyl)-6-((2,3′,5′-trifluoro-[1,1′-biphenyl]-3-yl)methyl)-5-azaspiro[2.4]heptan-7-yl)methanesulfonamide]	1 to 10 nM
CC(C)(F)CNC(=O)N1CC2(CC2)[C@H](NS(=O)(=O)CF)[C@@H]1Cc1cc(F)cc(-c2ccccc2)c1F [compound 51, (6S,7S)-6-((2,5-difluoro-[1,1′-biphenyl]-3-yl)methyl)-N-(2-fluoro-2-methylpropyl)-7-((fluoromethyl)sulfonamido)-5-azaspiro[2.4]heptane-5-carboxamide]	0.0631 to 1 nM
COC1CN(C(=O)N2CC3(CC3)[C@H](NS(=O)(=O)C(F)F)[C@@H]2Cc2cccc(-c3cc(F)cc(F)c3)c2F)C1 [compound 52, 1,1-difluoro-N-((6S,7S)-5-(3-methoxyazetidine-1-carbonyl)-6-((2,3′,5′-trifluoro-[1,1′-biphenyl]-3-yl)methyl)-5-azaspiro[2.4]heptan-7-yl)methanesulfonamide]	1 to 10 nM
N#C[C@]1(C(=O)N2CC3(CC3)[C@H](NS(=O)(=O)C(F)F)[C@@H]2Cc2cccc(-c3cccc(F)c3)c2F)CCO1 [compound 53, N-((6S,7S)-5-((S)-2-cyanooxetane-2-carbonyl)-6-((2,3′-difluoro-[1,1′-biphenyl]-3-yl)methyl)-5-azaspiro[2.4]heptan-7-yl)-1,1-difluoromethanesulfonamide]	1 to 10 nM
N#C[C@]1(C(=O)N2CC3(CC3)[C@H](NS(=O)(=O)CF)[C@@H]2Cc2cccc(-c3ccccc3)c2F)C[C@H](F)C1 [compound 54, N-((6S,7S)-5-((1r,3S)-1-cyano-3-fluorocyclobutane-1-carbonyl)-6-((2-fluoro-[1,1′-biphenyl]-3-yl)methyl)-5-azaspiro[2.4]heptan-7-yl)-1-fluoromethanesulfonamide]	0.0631 to 1 nM
